Assay results: patent US7504517B2, “Kv1.5 potassium channel inhibitors” (Wyeth, priority 2006, dated 2009)

Columns and labels:
L-type calcium channels = assay: FLIPR L-Type Calcium Channel Assay; format: cell-based, murine; conditions: HL-1 cells expressing endogenous L-type calcium channels; calcium influx after 20 mM KCl; read-out: L-type Ca^2+ IC50
Protocol: 50 μL per well test compounds are added to the plates and further incubated for 15 min. in a 5% CO2 37° C. incubator. All final solutions contain the anion exchange inhibitor, probenecid (2.5 mM). The 96-well plates are then placed in the center position of the FLIPR 1 (Fluorometric Imaging Plate Reader, Molecular Devices Corporation). Cell monolayers in each well are simultaneously illuminated at 488 nm with an Argon ion laser, and fluorescence emission is monitored using a 510-570 nm bandpass filter and a cooled CCD camera. To depolarize the plasma membrane and activate L-type calcium channels, 50 μL per well of 20 mM KCl (final concentration) are dispensed simultaneously to all 96 wells using the FLIPR's automatic 96-well pipettor. Fluorescence measurements are captured for 5 min. following KCl addition. Calcium influx, expressed as % control, is calculated for each concentration of test compound and concentration-response curves and IC50 values are generated using GraphPad Prism 4.0.

Kv1.5 = target: T1, Kv1.5 (Homo sapiens, UniProt P22460); assay: Kv1.5 Patch Clamp EP; format: cell-based; conditions: 1.0 μM, single point; whole cell patch clamp, Kv1.5 stably over expressed in HEK or LTK- cells
T1 construct: expressed in transfected cells; host or cells: HEK or LTK- cells
T1 sequence (P22460 whole entry): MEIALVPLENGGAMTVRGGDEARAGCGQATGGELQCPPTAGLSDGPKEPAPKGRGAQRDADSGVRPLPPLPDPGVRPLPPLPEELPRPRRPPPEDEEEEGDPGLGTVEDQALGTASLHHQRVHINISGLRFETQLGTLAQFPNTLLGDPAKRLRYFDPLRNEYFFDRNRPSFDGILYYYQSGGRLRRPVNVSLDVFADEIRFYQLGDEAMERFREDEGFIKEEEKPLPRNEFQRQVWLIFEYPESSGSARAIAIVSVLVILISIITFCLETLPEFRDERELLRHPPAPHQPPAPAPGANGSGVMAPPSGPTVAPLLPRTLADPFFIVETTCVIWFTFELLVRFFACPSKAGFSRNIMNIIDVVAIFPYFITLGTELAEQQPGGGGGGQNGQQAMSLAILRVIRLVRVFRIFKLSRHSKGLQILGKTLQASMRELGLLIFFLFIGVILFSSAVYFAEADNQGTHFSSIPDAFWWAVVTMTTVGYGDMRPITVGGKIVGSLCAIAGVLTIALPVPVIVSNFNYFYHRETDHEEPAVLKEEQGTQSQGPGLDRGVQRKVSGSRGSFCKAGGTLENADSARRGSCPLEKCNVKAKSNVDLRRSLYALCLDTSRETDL
Protocol: The external solution is standard Tyrodes solution. […] Inhibition was measured at the end of the 1 second pulses and expressed relative to controls. Initial Kv1.5 inhibition is estimated by single point determinations done at 1 μM.

| Structure (SMILES) | IC50 (L-type calcium channels) [µM] | inhibition at 1 µM (Kv1.5) [%] |
| --- | --- | --- |
| COc1ccc(CCN2C(=O)N(N)CC2c2ccc(C)c(C)c2)cc1 (centres unmarked) [Compound 1, 1-Amino-3-[2-(4-methoxyphenyl)ethyl]-4-(3,4-dimethylphenyl)-2-imidazolidinone] | 5.5 | 59 |
| COc1ccc(CCN2C(=O)N(NS(C)(=O)=O)CC2c2ccc(Cl)cc2)cc1 (centres unmarked) [Compound 21, 1-(Methylsulfonylamino)-3-[2-(4-methoxyphenyl)ethyl]-4-(4-chlorophenyl)-2-imidazolidinone] | 26 | 72 |
| CCCCS(=O)(=O)NN1CC(c2ccc(C3CC3)cc2)N(CCc2ccc(OC)cc2)C1=O (centres unmarked) [Compound 31, 1-(Butylsulfonylamino)-3-[(4-methoxyphenyl)ethyl]-4-(4-cyclopropylphenyl)-2-imidazolidinone] | 4 | 84 |
| COc1ccc(CCN2C(=O)N(NS(=O)(=O)CC(=O)NCC3CC3)C[C@H]2c2ccc(OC)cc2)cc1 [Compound 136, N-(cyclopropylmethyl)-2-({(4R)-4-(4-methoxyphenyl)-3-[2-(4-methoxyphenyl)ethyl]-2-oxoimidazolidin-1-yl}sulfamoyl)acetamide] | – | 44 |
| COc1ccc(CCN2C(=O)N(NS(C)(=O)=O)CC2c2ccc(F)cc2)cc1 (centres unmarked) [Compound 137, N-{4-(4-fluorophenyl)-3-[2-(4-methoxyphenyl)ethyl]-2-oxoimidazolidin-1-yl}methanesulfonamide] | – | 4 |
| COc1ccc(CCN2C(=O)N(NCc3nccn3C)CC2c2ccc(C)c(C)c2)cc1 (centres unmarked) [Compound 138, 4-(3,4-dimethylphenyl)-3-[2-(4-methoxyphenyl)ethyl]-1-{[(1-methyl-1H-imidazol-2-yl)methyl]amino}imidazolidin-2-one] | – | 7 |
| COc1ccc(CCN2C(=O)N(NS(=O)(=O)Cc3cccnc3)CC2c2ccc(F)cc2)cc1 (centres unmarked) [Compound 139, N-{4-(4-fluorophenyl)-3-[2-(4-methoxyphenyl)ethyl]-2-oxoimidazolidin-1-yl}-1-pyridin-3-ylmethanesulfonamide] | – | 14 |
| COc1ccc(CCN2C(=O)N(NS(C)(=O)=O)CC2C2(c3ccccc3)CC2)cc1 (centres unmarked) [Compound 140, N-{3-[2-(4-methoxyphenyl)ethyl]-2-oxo-4-(1-phenylcyclopropyl)imidazolidin-1-yl}methanesulfonamide] | – | 6 |
| COCCOc1ccc(C2CN(N)C(=O)N2CCc2ccc(OC)cc2)cc1 (centres unmarked) [Compound 141, 1-amino-4-[4-(2-methoxyethoxy)phenyl]-3-[2-(4-methoxyphenyl)ethyl]imidazolidin-2-one] | – | 4 |
| COc1ccc(CCN2C(=O)N(NS(C)(=O)=O)CC2c2ccc3ncccc3c2)cc1 (centres unmarked) [Compound 143, N-{3-[2-(4-methoxyphenyl)ethyl]-2-oxo-4-quinolin-6-ylimidazolidin-1-yl}methanesulfonamide] | – | 21 |
| COc1ccc(CCN2C(=O)N(NS(C)(=O)=O)CC2c2ccc3c(c2)OCCO3)cc1OC (centres unmarked) [Compound 144, N-{4-(2,3-dihydro-1,4-benzodioxin-6-yl)-3-[2-(3,4-dimethoxyphenyl)ethyl]-2-oxoimidazolidin-1-yl}methanesulfonamide] | – | 16 |
| COc1ccc(CCN2C(=O)N(NC(=O)c3cnccn3)CC2c2ccc(C(C)(C)C)cc2)cc1 (centres unmarked) [Compound 147, N-{4-(4-tert-butylphenyl)-3-[2-(4-methoxyphenyl)ethyl]-2-oxoimidazolidin-1-yl}pyrazine-2-carboxamide] | – | 42 |
| COc1ccc(CCN2C(=O)N(NS(=O)(=O)C(F)(F)F)CC2c2ccc(C(C)(C)C)cc2)cc1 (centres unmarked) [Compound 148, N-{4-(4-tert-butylphenyl)-3-[2-(4-methoxyphenyl)ethyl]-2-oxoimidazolidin-1-yl}-1,1,1-trifluoromethanesulfonamide] | – | 2 |
| COc1ccc(CCN2C(=O)N(NS(C)(=O)=O)CC2c2ccc(OC)nc2)cc1 (centres unmarked) [Compound 149, N-{3-[2-(4-methoxyphenyl)ethyl]-4-(6-methoxypyridin-3-yl)-2-oxoimidazolidin-1-yl}methanesulfonamide] | – | 9 |
| COc1ccc(CCN2C(=O)N(N3CCN(C(N)=O)CC3)CC2c2ccc(C(C)(C)C)cc2)cc1 (centres unmarked) [Compound 150, 4-{4-(4-tert-butylphenyl)-3-[2-(4-methoxyphenyl)ethyl]-2-oxoimidazolidin-1-yl}piperazine-1-carboxamide] | – | 17 |

Second part, the compound after the results:

| IC50 (L-type calcium channels) [µM] | inhibition at 1 µM (Kv1.5) [%] | Structure (SMILES) |
| --- | --- | --- |
| – | 8 | COCCOc1ccc(C2CN(NS(C)(=O)=O)C(=O)N2CCc2ccc(OC)cc2)cc1 (centres unmarked) [Compound 151, N-{4-[4-(2-methoxyethoxy)phenyl]-3-[2-(4-methoxyphenyl)ethyl]-2-oxoimidazolidin-1-yl}methanesulfonamide] |
| – | 16 | COc1ccc(C2CN(NS(C)(=O)=O)C(=O)N2CCc2ccc(OC(F)(F)F)cc2)cc1 (centres unmarked) [Compound 152, N-[4-(4-methoxyphenyl)-2-oxo-3-{2-[4-(trifluoromethoxy)phenyl]ethyl}imidazolidin-1-yl]methanesulfonamide] |
| – | 12 | COc1ccc(CCN2C(=O)N(NS(=O)(=O)CS(C)(=O)=O)CC2c2ccc(OC)cc2)cc1 (centres unmarked) [Compound 153, N-{4-(4-methoxyphenyl)-3-[2-(4-methoxyphenyl)ethyl]-2-oxoimidazolidin-1-yl}-1-(methylsulfonyl)methanesulfonamide] |
| – | 7 | COc1ccc(C2CN(N)C(=O)N2CCc2ccc(OC(F)F)cc2)cc1 (centres unmarked) [Compound 154, 1-amino-3-{2-[4-(difluoromethoxy)phenyl]ethyl}-4-(4-methoxyphenyl)imidazolidin-2-one] |
| – | 7 | COc1ccc(CCN2C(=O)N(N)CC2C2(c3ccccc3)CC2)cc1 (centres unmarked) [Compound 156, 1-amino-3-[2-(4-methoxyphenyl)ethyl]-4-(1-phenylcyclopropyl)imidazolidin-2-one] |
| – | 10 | COc1ccc(CCN2C(=O)N(NS(C)(=O)=O)CC2c2ccc(OC)c(OC)c2)cc1 (centres unmarked) [Compound 158, N-{4-(3,4-dimethoxyphenyl)-3-[2-(4-methoxyphenyl)ethyl]-2-oxoimidazolidin-1-yl}methanesulfonamide] |
| – | 4 | COc1ccc(CCN2C(=O)N(N)CC2c2ccc(C)cc2)cc1 (centres unmarked) [Compound 159, 1-amino-3-[2-(4-methoxyphenyl)ethyl]-4-(4-methylphenyl)imidazolidin-2-one] |
| – | 8 | COc1ccc(CCN2C(=O)N(NCc3cc[n+]([O-])cc3)CC2c2ccc(C)c(C)c2)cc1 (centres unmarked) [Compound 161, 4-(3,4-dimethylphenyl)-3-[2-(4-methoxyphenyl)ethyl]-1-{[(1-oxidopyridin-4-yl)methyl]amino}imidazolidin-2-one] |
| – | 8 | CCC1(CC)CN(NS(=O)(=O)Cc2cccnc2)C(=O)N1CCc1ccc(OC)cc1 [Compound 162, N-{4,4-diethyl-3-[2-(4-methoxyphenyl)ethyl]-2-oxoimidazolidin-1-yl}-1-pyridin-3-ylmethanesulfonamide] |
| – | 16 | COc1ccc(CCN2C(=O)N(N)CC2C2(c3ccc(F)cc3)CC2)cc1 (centres unmarked) [Compound 163, 1-amino-4-[1-(4-fluorophenyl)cyclopropyl]-3-[2-(4-methoxyphenyl)ethyl]imidazolidin-2-one] |
| – | 2 | COc1ccc(CCN2C(=O)N(N)CC2c2ccc(OC(C)C)cc2)cc1 (centres unmarked) [Compound 164, 1-amino-4-(4-isopropoxyphenyl)-3-[2-(4-methoxyphenyl)ethyl]imidazolidin-2-one] |
| – | 11 | COc1ccc(CCN2C(=O)N(NS(C)(=O)=O)CC2C2(c3ccc(F)cc3)CC2)cc1 (centres unmarked) [Compound 165, N-{4-[1-(4-fluorophenyl)cyclopropyl]-3-[2-(4-methoxyphenyl)ethyl]-2-oxoimidazolidin-1-yl}methanesulfonamide] |
| – | 41 | COc1ccc(CCN2C(=O)N(NS(=O)(=O)N3CCN(C)CC3)CC2c2ccc(C)c(C)c2)cc1 (centres unmarked) [Compound 166, N-{4-(3,4-dimethylphenyl)-3-[2-(4-methoxyphenyl)ethyl]-2-oxoimidazolidin-1-yl}-4-methylpiperazine-1-sulfonamide] |
| – | 36 | COc1ccc(CCN2C(=O)N(NS(N)(=O)=O)CC2c2ccc(OC)cc2)cc1 (centres unmarked) [Compound 167, N-{4-(4-methoxyphenyl)-3-[2-(4-methoxyphenyl)ethyl]-2-oxoimidazolidin-1-yl}sulfamide] |
| – | 16 | CC(C)(C)c1ccc(C2CN(NS(C)(=O)=O)C(=O)N2CCc2ccc(OCCN3CCOCC3)cc2)cc1 (centres unmarked) [Compound 169, N-[4-(4-tert-butylphenyl)-3-{2-[4-(2-morpholin-4-ylethoxy)phenyl]ethyl}-2-oxoimidazolidin-1-yl]methanesulfonamide] |
| – | 9 | COc1ccc(CCN2C(=O)N(NS(=O)(=O)CC(=O)O)CC2c2ccc(C3CC3)cc2)cc1 (centres unmarked) [Compound 174, [[[4-(4-cyclopropylphenyl)-3-[2-(4-methoxyphenyl)ethyl]-2-oxo-imidazolidin-1-yl]amino]sulfonyl]acetic acid] |
| – | 7 | COc1ccc(CCN2C(=O)N(N)CC2c2ccc(OC)cc2)cc1 (centres unmarked) [Compound 175, 1-amino-4-(4-methoxyphenyl)-3-[2-(4-methoxyphenyl)ethyl]imidazolidin-2-one] |
